Columns and labels:
Assay in all cases: Bliss excess, mean over the matrix (fraction); higher = more synergy
[1] = tested on: HAL-01 (B-Lymphoblastic Leukemia)
In short: (§1)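 Cell lines grown in DMEM/F12 or RPMI with 10% FBS were plated in 1536-well plates and held 24 hours at 37°C, 5% CO2 before 72 hours of exposure to two-drug dose matrices, with DMSO typically at 0.2%. CellTiter-Glo 2.0 luminescence gave viability, which was converted to inhibition. Vehicle wells were set to 0 and blank wells to 1. Combination Emax is the second-highest inhibition in the matrix, and Bliss excess is the observed combination effect minus the expected EA + EB − EA·EB, where EA and EB are the single-agent effects.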

[2] = tested on: MDA-MB-453 (Breast Carcinoma)
In short: as §1

[3] = tested on: EJM (Plasma Cell Myeloma)
In short: as §1

[4] = tested on: EFO-21 (Ovarian Carcinoma)
In short: as §1

| SMILES | Bliss excess [1] | Bliss excess [2] | Bliss excess [3] | Bliss excess [4] |
| --- | --- | --- | --- | --- |
| CC(=O)Nc1cccc(-n2c(=O)n(C3CC3)c(=O)c3c(Nc4ccc(I)cc4F)n(C)c(=O)c(C)c32)c1 [Trametinib] + Cc1nc(-c2cn3c(n2)-c2ccc(-c4cnn(C(C)(C)C(N)=O)c4)cc2OCC3)n(C(C)C)n1 [Taselisib] (first compound max 1 µM, 7x7, partner max 10 µM) | 0.147 | -0.0279 | 0.142 | 0.048 |
| COc1nnc2ccc(N3CCC(c4ccc(OCCN5CCN(C)C(=O)[C@H]5C)cc4)CC3)nn12 [AZD5153] + CC1(C)CCC(CN2CCN(c3ccc(C(=O)NS(=O)(=O)c4ccc(NCC5CCOCC5)c([N+](=O)[O-])c4)c(Oc4cnc5[nH]ccc5c4)c3)CC2)=C(c2ccc(Cl)cc2)C1 [Venetoclax] (first compound max 1 µM, 7x7, partner max 1 µM) | -0.0804 | -0.0381 | -0.0381 | -0.0464 |
| COc1cccc(OCCCN)c1-c1cc(Nc2cnc(C#N)cn2)n[nH]1 [Prexasertib] + CCc1c2c(nc3ccc(O)cc13)-c1cc3c(c(=O)n1C2)COC(=O)[C@]3(O)CC [SN-38] (first compound max 1 µM, 7x7, partner max 0.3 µM) | -0.0262 | 0.0234 | -0.0446 | -0.0714 |
| Cn1cnc2c(F)c(Nc3ccc(Br)cc3Cl)c(C(=O)NOCCO)cc21 [Selumetinib] + C=CCn1c(=O)c2cnc(Nc3ccc(N4CCN(C)CC4)cc3)nc2n1-c1cccc(C(C)(C)O)n1 [AZD1775] (first compound max 10 µM, partner max 1 µM) | 0.0056 | -0.0065 | -0.0146 | -0.0834 |
| CCN(CCO)CCCOc1ccc2c(Nc3cc(CC(=O)Nc4cccc(F)c4)[nH]n3)ncnc2c1 [AZD2811] + C=CCn1c(=O)c2cnc(Nc3ccc(N4CCN(C)CC4)cc3)nc2n1-c1cccc(C(C)(C)O)n1 [AZD1775] (first compound max 1 µM, partner max 1 µM) | 0.0495 | 0.0236 | -0.0443 | -0.062 |
| CS(=O)(=O)CCNCc1ccc(-c2ccc3ncnc(Nc4ccc(OCc5cccc(F)c5)c(Cl)c4)c3c2)o1 [Lapatinib] + C[C@@H](Oc1cc(-c2cnn(C3CCNCC3)c2)cnc1N)c1c(Cl)ccc(F)c1Cl [Crizotinib] (first compound max 10 µM, 7x7, partner max 10 µM) | -0.0265 | 0.0232 | -0.0001 | -0.0148 |
| CC(=O)c1c(C)c2cnc(Nc3ccc(N4CCNCC4)cn3)nc2n(C2CCCC2)c1=O [Palbociclib] + Cn1cnc2c(F)c(Nc3ccc(Br)cc3Cl)c(C(=O)NOCCO)cc21 [Selumetinib] (first compound max 10 µM, 7x7, partner max 10 µM) | 0.0297 | -0.036 | -0.0193 | -0.0531 |
| COc1cccc(OCCCN)c1-c1cc(Nc2cnc(C#N)cn2)n[nH]1 [Prexasertib] + O=C(c1cc(Cc2n[nH]c(=O)c3ccccc23)ccc1F)N1CCN(C(=O)C2CC2)CC1 [Olaparib] (first compound max 1 µM, 7x7, partner max 10 µM) | 0.0006 | -0.128 | -0.0434 | -0.1 |
| COc1cccc(OCCCN)c1-c1cc(Nc2cnc(C#N)cn2)n[nH]1 [Prexasertib] + C[C@@H]1COCCN1C2=NC(=NC(=C2)C3(CC3)[S@](=N)(=O)C)C4=C5C=CNC5=NC=C4 [AZD6738] (first compound max 1 µM, 7x7, partner max 10 µM) | -0.022 | -0.0036 | -0.044 | -0.02 |
| Cc1c2c(nn1C)CSCc1cc(n(C)n1)CSc1cc(c3ccccc3c1)OCCCc1c(C(=O)O)n(C)c3c-2c(Cl)ccc13 [AZD5991] + C1CN(CCC1(C(=O)N[C@@H](CCO)C2=CC=C(C=C2)Cl)N)C3=NC=NC4=C3C=CN4 [Capivasertib] (first compound max 1 µM, 7x7, partner max 3 µM) | 0.0298 | 0.05 | 0.0504 | -0.0406 |
| CN(C)CCCOc1ccc(-c2ccc3ncc4c(c3c2)n(C2CCOCC2)c(=O)n4C)cn1 [AZD0156] + C[C@@H]1COCCN1C2=NC(=NC(=C2)C3(CC3)[S@](=N)(=O)C)C4=C5C=CNC5=NC=C4 [AZD6738] (first compound max 1 µM, 7x7, partner max 10 µM) | -0.0648 | -0.0229 | 0.0266 | -0.0206 |
| Cn1cnc2c(F)c(Nc3ccc(Br)cc3Cl)c(C(=O)NOCCO)cc21 [Selumetinib] + CC(C)n1c(=O)n(C)c2cnc3cc(F)c(-c4ccc(OCCCN5CCCCC5)nc4)cc3c21 [AZD1390] (first compound max 10 µM, 7x7, partner max 0.3 µM) | 0.0741 | -0.0148 | -0.0131 | -0.026 |
| Cc1c2c(nn1C)CSCc1cc(n(C)n1)CSc1cc(c3ccccc3c1)OCCCc1c(C(=O)O)n(C)c3c-2c(Cl)ccc13 [AZD5991] + Cc1cc2ncnn2cc1Nc1ncc2c(n1)n(C1CCOCC1)c(=O)n2C [AZD7648] (first compound max 1 µM, 7x7, partner max 10 µM) | 0.0227 | -0.0328 | 0.0164 | -0.116 |
| COc1cccc(OCCCN)c1-c1cc(Nc2cnc(C#N)cn2)n[nH]1 [Prexasertib] + Cc1cc2ncnn2cc1Nc1ncc2c(n1)n(C1CCOCC1)c(=O)n2C [AZD7648] (first compound max 1 µM, 7x7, partner max 10 µM) | -0.0257 | -0.0143 | -0.0334 | -0.0446 |
